Data on 22 compounds can be found in patent US20100280085A1, “CHEMICAL COMPOUNDS” (SYNGENTA CROP PROTECTION, INC., priority 2006, published 2010).

The subject of data set [1] is Myzus persicae (Green peach aphid). As to the kind of experiment: Myzus persicae sunflower leaf disc spray test. Type of data set: in vivo. The note with it: foliar, 144 h, read-out: control of Myzus persicae. The procedure:
(§1) This Example illustrates the pesticidal/insecticidal properties of compounds of formula (I). The compounds numbers are those of the characterising data tables. Test against were performed as follows:
Heliothis virescens (Tobacco budworm): Eggs (0-24 h old) were placed in 24-well microtiter plate on artificial diet and treated with test solutions at an application rate of 200 ppm by pipetting. After an incubation period of 4 days, samples were checked for egg mortality, larval mortality, and growth regulation. The following compounds gave at least 80% control of Heliothis virescens: 1.004, 1.005, 1.012, 1.016, 4.001, 31.016, 31.018. Myzus persicae (Green peach aphid): Sunflower leaf discs were placed on agar in a 24-well microtiter plate and sprayed with test solutions at an application rate of 200 ppm. After drying, the leaf discs were infested with an aphid population of mixed ages. After an incubation period of 6 DAT, samples were checked for mortality.

Data set [2] has the same test system. Description: Myzus persicae test, roots of infested pea seedlings placed in test solution. Type of data set: in vivo. The settings on record: 144 h, read-out: control of Myzus persicae. The procedure: as §1
Myzus persicae (Green peach aphid): Roots of pea seedlings, infested with an aphid population of mixed ages, were placed directly in the test solutions of 24 ppm. 6 days after introduction, samples were checked for mortality.

Where [3] appears, read: sunflower leaf discs sprayed at 200 ppm, mixed ages, mortality at 6 DAT.
Setting [4] is: roots of pea seedlings in test solutions of 24 ppm, mixed ages, mortality after 6 days.

Where two headings read alike, the source gives them in different places. Some results are limits rather than exact numbers.

What is called melting point is the temperature, or range, at which the solid turns liquid. `OC1Cc2ccccc2C1NC1=NCCO1` (stereo not drawn) [1.014] returned a melting point of 140 to 142 °C. Take `O=C(NCCCl)NC1CCc2ccccc21` (stereo not drawn) [Compound 31.018]: in data set [1], the pest or weed control at 200 ppm is not below 80%. In addition, the pest or weed control at 24 ppm in data set [2] was not below 80%.

On to `Brc1ccc2c(c1)CCC2NC1=NCCO1` (stereo not drawn) [Compound 1.006], for which, in data set [1] (setting [3]), the pest or weed control at 200 ppm was not below 80%. Still for that read-out and setting: to `Clc1ccc2c(c1)CCC2NC1=NCCO1` (stereo not drawn) [Compound 1.007] belongs not below 80%; to `Fc1ccc2c(c1)CCC2NC1=NCCO1` (stereo not drawn) [Compound 1.005], not below 80%.

Regarding `CC1Cc2ccccc2C1NC1=NCCO1` (stereo not drawn) [Compound 1.015], the pest or weed control at 200 ppm in data set [1] (setting [3]) was not below 80%. With `CC1CC(NC2=NCCO2)c2ccccc21` (stereo not drawn) [Compound 1.002], the pest or weed control at 200 ppm in data set [1] (setting [3]) was not below 80%. Further, in data set [2] (setting [4]), the pest or weed control at 24 ppm is not below 80%. As to `Fc1cccc2c1CCC2NC1=NCCO1` (stereo not drawn) [Compound 1.016], in data set [1] (setting [3]), the pest or weed control at 200 ppm is not below 80%. Moreover, the pest or weed control at 24 ppm in data set [2] (setting [4]) is not below 80%. Consider `c1ccc(C2CC(NC3=NCCO3)c3ccccc32)cc1` (stereo not drawn), for which the melting point was > 120 °C (dec.).

For the compound `CC1Cc2ccccc2C1NC1=NCCO1` (stereo not drawn) [Compound 1.001], in data set [2] (setting [4]), the pest or weed control at 24 ppm was not below 80%. In the case of `CC1Cc2ccccc2C1NC(=O)NCCCl` (stereo not drawn) [Compound 31.001], the pest or weed control at 200 ppm in data set [1] is not below 80%. Further, the pest or weed control at 24 ppm in data set [2] was not below 80%. As to `CC1CC(NC(=O)NCCCl)c2ccccc21` (stereo not drawn) [Compound 31.002], the pest or weed control at 200 ppm in data set [1] is not below 80%. In data set [2], the pest or weed control at 24 ppm was not below 80%. Regarding `Cc1ccc2c(c1)CCC2NC1=NCCO1` (stereo not drawn) [Compound 1.010], the pest or weed control at 200 ppm in data set [1] (setting [3]) is not below 80%. The pest or weed control at 24 ppm in data set [2] (setting [4]) is not below 80%. `Cc1cccc2c1CCC2NC1=NCCO1` (stereo not drawn) [Compound 1.004]: the pest or weed control at 200 ppm in data set [1] (setting [3]) is not below 80%. In addition, the pest or weed control at 24 ppm in data set [2] (setting [4]) was not below 80%. In the case of `COc1ccc2c(c1)C(NC1=NCCO1)CC2` (stereo not drawn) [Compound 1.009], in data set [1] (setting [3]), the pest or weed control at 200 ppm was not below 80%. Take `O=C(NCCCl)NC1CCc2ccccc21` (racemic) [Compound 31.017]: the pest or weed control at 200 ppm in data set [1] is not below 80%. Further, the pest or weed control at 24 ppm in data set [2] was not below 80%. `c1ccc2c(c1)CCC2NC1=NCCO1` (stereo not drawn) [Compound 1.017]: the pest or weed control at 200 ppm in data set [1] (setting [3]) was not below 80%. Moreover, in data set [2] (setting [4]), the pest or weed control at 24 ppm was not below 80%. Turning to `Cc1ccc2c(c1)C(NC1=NCCO1)CC2` (stereo not drawn) [Compound 1.012, (4,5-Dihydro-oxazol-2-yl)-(6-methyl-indan-1-yl)-amine], in data set [1] (setting [3]), the pest or weed control at 200 ppm is not below 80%. Also, the pest or weed control at 24 ppm in data set [2] (setting [4]) is not below 80%. In turn, `OC1Cc2ccccc2C1NC1=NCCO1` (stereo not drawn) [1.013] gave a melting point of 139 to 141 °C. On the same count and under the same terms, to `COc1cc2c(cc1OC)C(NC1=NCCO1)CC2` (stereo not drawn) belongs 109 to 113 °C; to `COc1ccc2c(c1)CCC2NC1=NCCO1` (stereo not drawn), 115 to 118 °C. For the compound `O=C(NCCCl)NC1CCc2c(F)cccc21` (stereo not drawn) [Compound 31.016], the pest or weed control at 200 ppm in data set [1] is not below 80%. Further, in data set [2], the pest or weed control at 24 ppm was not below 80%.
